This passage reports relative viability results from the supplement of paper PMC10307832.

Holding throughout (assay): relative viability (nuclei count vs DMSO), 5 days (fraction); higher = more cells survive
Compound in the experiment “Fedratinib + OSI-027”: Cc1cnc(Nc2ccc(OCCN3CCCC3)cc2)nc1Nc1cccc(S(=O)(=O)NC(C)(C)C)c1 [Fedratinib] + COc1cccc2cc(-c3nc([C@H]4CC[C@H](C(=O)O)CC4)n4ncnc(N)c34)[nH]c12 [OSI-027] (partner 0.5 µM)
The gist of the method:
(§1)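 Lung cancer cell lines were pin-tool dosed in 1536-well plates on the day after seeding, with either a lone drug or a fixed anchor-drug dose plus five library-drug doses (not always all listed) in √10 steps. Nuclei were counted on 4× images after 5 days. Relative viability is the ratio of treated-well to vehicle-well nuclei counts, with each value a median of duplicate plates.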

Compound in the experiment “Fedratinib + Luminespib”: Cc1cnc(Nc2ccc(OCCN3CCCC3)cc2)nc1Nc1cccc(S(=O)(=O)NC(C)(C)C)c1 [Fedratinib] + CCNC(=O)c1noc(-c2cc(C(C)C)c(O)cc2O)c1-c1ccc(CN2CCOCC2)cc1 [Luminespib] (partner 0.01 µM)
The gist of the method:
as §1

Compound in the experiment “GW-2580 + Pemetrexed”: COC1=CC=C(C=C1)COC2=C(C=C(C=C2)CC3=CN=C(N=C3N)N)OC [GW-2580] + Nc1nc2[nH]cc(CCc3ccc(C(=O)N[C@@H](CCC(=O)O)C(=O)O)cc3)c2c(=O)[nH]1 [Pemetrexed] (partner 0.2 µM)
The gist of the method:
as §1

Compound in the experiment “GW-2580 + Luminespib”: COC1=CC=C(C=C1)COC2=C(C=C(C=C2)CC3=CN=C(N=C3N)N)OC [GW-2580] + CCNC(=O)c1noc(-c2cc(C(C)C)c(O)cc2O)c1-c1ccc(CN2CCOCC2)cc1 [Luminespib] (partner 0.01 µM)
The gist of the method:
as §1

Compound in the experiment “Fedratinib + Lapatinib”: Cc1cnc(Nc2ccc(OCCN3CCCC3)cc2)nc1Nc1cccc(S(=O)(=O)NC(C)(C)C)c1 [Fedratinib] + CS(=O)(=O)CCNCc1ccc(-c2ccc3ncnc(Nc4ccc(OCc5cccc(F)c5)c(Cl)c4)c3c2)o1 [Lapatinib] (partner 2 µM)
The gist of the method:
as §1

For NCI-H23, the relative viability in the experiment with Fedratinib + OSI-027 (first compound 0.1 µM) turned out to be 0.579; with Fedratinib + OSI-027 (first compound 0.3162 µM), 0.654; in the experiment with Fedratinib + OSI-027 (first compound 1 µM), 0.525; in the experiment with Fedratinib + Luminespib (first compound 0.1 µM), 0.193; with Fedratinib + Luminespib (first compound 0.3162 µM), 0.212; with Fedratinib + Luminespib (first compound 1 µM) it was 0.204. Besides, the relative viability with GW-2580 + Pemetrexed (first compound 0.08 µM) was 0.581; with GW-2580 + Pemetrexed (first compound 0.8 µM), 0.869; with GW-2580 + Pemetrexed (first compound 2.53 µM), 0.777; in the experiment with GW-2580 + Pemetrexed (first compound 8 µM), 0.492; with GW-2580 + Luminespib (first compound 0.08 µM) it was 0.226; with GW-2580 + Luminespib (first compound 0.8 µM) it was 0.194. Also, the relative viability in the experiment with GW-2580 + Luminespib (first compound 2.53 µM) worked out at 0.213; with GW-2580 + Luminespib (first compound 8 µM) it was 0.191; with Fedratinib + Lapatinib (first compound 0.1 µM) it was 1.23; in the experiment with Fedratinib + Lapatinib (first compound 0.3162 µM), 1.03; in the experiment with Fedratinib + Lapatinib (first compound 1 µM), 0.319.

On to NCI-H322M, for which the relative viability with Fedratinib + OSI-027 (first compound 0.1 µM) is 0.548; with Fedratinib + OSI-027 (first compound 0.3162 µM), 0.566; in the experiment with Fedratinib + OSI-027 (first compound 1 µM) it was 0.462; with Fedratinib + Luminespib (first compound 0.1 µM), 0.59; with Fedratinib + Luminespib (first compound 0.3162 µM), 0.849; with Fedratinib + Luminespib (first compound 1 µM), 0.49. Moreover, the relative viability with GW-2580 + Pemetrexed (first compound 0.08 µM) is 0.582; with GW-2580 + Pemetrexed (first compound 0.8 µM) it was 0.626; with GW-2580 + Pemetrexed (first compound 2.53 µM), 0.676; in the experiment with GW-2580 + Pemetrexed (first compound 8 µM) it was 0.567; with GW-2580 + Luminespib (first compound 0.08 µM) it was 0.868; in the experiment with GW-2580 + Luminespib (first compound 0.8 µM), 0.887. In addition, the relative viability with GW-2580 + Luminespib (first compound 2.53 µM) came to 0.805; in the experiment with GW-2580 + Luminespib (first compound 8 µM), 0.903; with Fedratinib + Lapatinib (first compound 0.1 µM), 0.608; in the experiment with Fedratinib + Lapatinib (first compound 0.3162 µM), 0.615; with Fedratinib + Lapatinib (first compound 1 µM), 0.523.

For NCI-H358, the relative viability in the experiment with Fedratinib + OSI-027 (first compound 0.1 µM) amounted to 0.594; with Fedratinib + OSI-027 (first compound 0.3162 µM), 0.892; with Fedratinib + OSI-027 (first compound 1 µM), 0.47; with Fedratinib + Luminespib (first compound 0.1 µM) it was 0.578; with Fedratinib + Luminespib (first compound 0.3162 µM), 0.2; with Fedratinib + Luminespib (first compound 1 µM), 0.307. Moreover, the relative viability in the experiment with GW-2580 + Pemetrexed (first compound 0.08 µM) was found to be 0.171; with GW-2580 + Pemetrexed (first compound 0.8 µM), 0.186; in the experiment with GW-2580 + Pemetrexed (first compound 2.53 µM), 0.166; in the experiment with GW-2580 + Pemetrexed (first compound 8 µM), 0.178; with GW-2580 + Luminespib (first compound 0.08 µM), 0.34; with GW-2580 + Luminespib (first compound 0.8 µM) it was 0.344. Moreover, the relative viability with GW-2580 + Luminespib (first compound 2.53 µM) stood at 0.364; in the experiment with GW-2580 + Luminespib (first compound 8 µM), 0.463; in the experiment with Fedratinib + Lapatinib (first compound 0.1 µM), 0.366; in the experiment with Fedratinib + Lapatinib (first compound 0.3162 µM) it was 0.369; with Fedratinib + Lapatinib (first compound 1 µM) it was 0.334.

NCI-H441: the relative viability in the experiment with Fedratinib + OSI-027 (first compound 0.1 µM) came to 0.443; with Fedratinib + OSI-027 (first compound 0.3162 µM), 0.625; in the experiment with Fedratinib + OSI-027 (first compound 1 µM), 0.511; with Fedratinib + Luminespib (first compound 0.1 µM), 0.331; with Fedratinib + Luminespib (first compound 0.3162 µM), 0.262; with Fedratinib + Luminespib (first compound 1 µM), 0.343. The relative viability with GW-2580 + Pemetrexed (first compound 0.08 µM) stood at 0.273; with GW-2580 + Pemetrexed (first compound 0.8 µM) it was 0.26; in the experiment with GW-2580 + Pemetrexed (first compound 2.53 µM) it was 0.234; with GW-2580 + Pemetrexed (first compound 8 µM) it was 0.262; with GW-2580 + Luminespib (first compound 0.08 µM) it was 0.307; with GW-2580 + Luminespib (first compound 0.8 µM) it was 0.621. Also, the relative viability is 0.493 in the experiment with GW-2580 + Luminespib (first compound 2.53 µM) and 0.293 with GW-2580 + Luminespib (first compound 8 µM).

On to NCI-H460, for which the relative viability amounted to 0.642 with Fedratinib + OSI-027 (first compound 0.1 µM); 0.645 with Fedratinib + OSI-027 (first compound 0.3162 µM); 0.507 with Fedratinib + OSI-027 (first compound 1 µM); 0.0244 in the experiment with Fedratinib + Luminespib (first compound 0.1 µM); 0.0389 with Fedratinib + Luminespib (first compound 0.3162 µM); 0.0213 with Fedratinib + Luminespib (first compound 1 µM). Further, the relative viability is 0.0622 with GW-2580 + Pemetrexed (first compound 0.08 µM); 0.0626 with GW-2580 + Pemetrexed (first compound 0.8 µM); 0.0647 in the experiment with GW-2580 + Pemetrexed (first compound 2.53 µM); 0.0595 with GW-2580 + Pemetrexed (first compound 8 µM); 0.0341 with GW-2580 + Luminespib (first compound 0.08 µM); 0.0427 with GW-2580 + Luminespib (first compound 0.8 µM). In addition, the relative viability amounted to 0.0355 with GW-2580 + Luminespib (first compound 2.53 µM); 0.0322 with GW-2580 + Luminespib (first compound 8 µM); 1.45 with Fedratinib + Lapatinib (first compound 0.1 µM); 0.956 with Fedratinib + Lapatinib (first compound 0.3162 µM); 0.855 with Fedratinib + Lapatinib (first compound 1 µM).

For the cell line NCI-H522, the relative viability with Fedratinib + OSI-027 (first compound 0.1 µM) is 0.629; with Fedratinib + OSI-027 (first compound 0.3162 µM), 0.825; with Fedratinib + OSI-027 (first compound 1 µM) it was 0.566; in the experiment with Fedratinib + Luminespib (first compound 0.1 µM), 1.14; in the experiment with Fedratinib + Luminespib (first compound 0.3162 µM), 1.21; in the experiment with Fedratinib + Luminespib (first compound 1 µM) it was 1.14. For the same cell line, the relative viability with GW-2580 + Pemetrexed (first compound 0.08 µM) stood at 1.11; with GW-2580 + Pemetrexed (first compound 0.8 µM), 0.97; in the experiment with GW-2580 + Pemetrexed (first compound 2.53 µM) it was 0.967; with GW-2580 + Pemetrexed (first compound 8 µM), 0.994; in the experiment with GW-2580 + Luminespib (first compound 0.08 µM), 1.22; with GW-2580 + Luminespib (first compound 0.8 µM), 1.57. Also, the relative viability was 1.14 in the experiment with GW-2580 + Luminespib (first compound 2.53 µM) and 1.24 with GW-2580 + Luminespib (first compound 8 µM).

For NCI-H727, the relative viability with Fedratinib + OSI-027 (first compound 0.1 µM) worked out at 0.504; in the experiment with Fedratinib + OSI-027 (first compound 0.3162 µM) it was 0.674; with Fedratinib + OSI-027 (first compound 1 µM), 0.534; with Fedratinib + Luminespib (first compound 0.1 µM), 0.269; with Fedratinib + Luminespib (first compound 0.3162 µM), 0.301; with Fedratinib + Luminespib (first compound 1 µM), 0.375. Besides, the relative viability in the experiment with GW-2580 + Luminespib (first compound 0.8 µM) is 0.539; with GW-2580 + Luminespib (first compound 2.53 µM), 0.344; with GW-2580 + Luminespib (first compound 8 µM), 0.382; with Fedratinib + Lapatinib (first compound 0.1 µM), 0.783; in the experiment with Fedratinib + Lapatinib (first compound 0.3162 µM), 0.846; with Fedratinib + Lapatinib (first compound 1 µM) it was 0.211.

In the case of NCI-H1299, the relative viability in the experiment with Fedratinib + Lapatinib (first compound 0.1 µM) stood at 0.963; in the experiment with Fedratinib + Lapatinib (first compound 0.3162 µM), 0.96; in the experiment with Fedratinib + Lapatinib (first compound 1 µM) it was 0.983.

Consider NCI-H1648, for which the relative viability with Fedratinib + OSI-027 (first compound 0.1 µM) was found to be 0.221; in the experiment with Fedratinib + OSI-027 (first compound 0.3162 µM), 0.263; in the experiment with Fedratinib + OSI-027 (first compound 1 µM), 0.269; with GW-2580 + Pemetrexed (first compound 0.08 µM), 0.778; in the experiment with GW-2580 + Pemetrexed (first compound 2.53 µM), 0.609; with GW-2580 + Pemetrexed (first compound 8 µM), 0.611.

Take NCI-H1703: the results for the relative viability with Fedratinib + Lapatinib (first compound 0.1 µM), in the experiment with Fedratinib + Lapatinib (first compound 0.3162 µM) and in the experiment with Fedratinib + Lapatinib (first compound 1 µM) were 0.675, 0.834 and 0.667, respectively.

In the case of NCI-H2342, the relative viability with Fedratinib + OSI-027 (first compound 0.1 µM) amounted to 0.615; with Fedratinib + OSI-027 (first compound 0.3162 µM), 0.65; with Fedratinib + OSI-027 (first compound 1 µM) it was 0.559; in the experiment with Fedratinib + Luminespib (first compound 0.1 µM), 0.695; with Fedratinib + Luminespib (first compound 0.3162 µM) it was 0.874; in the experiment with Fedratinib + Luminespib (first compound 1 µM), 0.837. For the same cell line, the relative viability was determined as 0.705 in the experiment with GW-2580 + Pemetrexed (first compound 0.08 µM); 0.828 with GW-2580 + Pemetrexed (first compound 0.8 µM); 0.682 in the experiment with GW-2580 + Pemetrexed (first compound 2.53 µM); 0.733 in the experiment with GW-2580 + Pemetrexed (first compound 8 µM); 0.788 with GW-2580 + Luminespib (first compound 0.08 µM); 0.77 in the experiment with GW-2580 + Luminespib (first compound 0.8 µM). Further, the values for the relative viability with GW-2580 + Luminespib (first compound 2.53 µM) and with GW-2580 + Luminespib (first compound 8 µM) were 0.859 and 0.714, respectively.

Turning to SW 900, the relative viability with Fedratinib + OSI-027 (first compound 0.1 µM) was found to be 0.522; with Fedratinib + OSI-027 (first compound 0.3162 µM), 0.539; with Fedratinib + OSI-027 (first compound 1 µM), 0.35; with Fedratinib + Luminespib (first compound 0.1 µM), 0.147; with Fedratinib + Luminespib (first compound 0.3162 µM) it was 0.171; with Fedratinib + Luminespib (first compound 1 µM), 0.167. For the same cell line, the relative viability in the experiment with GW-2580 + Pemetrexed (first compound 0.08 µM) is 0.509; in the experiment with GW-2580 + Pemetrexed (first compound 0.8 µM), 0.511; in the experiment with GW-2580 + Pemetrexed (first compound 2.53 µM) it was 0.495; with GW-2580 + Pemetrexed (first compound 8 µM), 0.547; in the experiment with GW-2580 + Luminespib (first compound 0.08 µM), 0.17; with GW-2580 + Luminespib (first compound 0.8 µM) it was 0.182. Also, the relative viability in the experiment with GW-2580 + Luminespib (first compound 2.53 µM) was 0.161; with GW-2580 + Luminespib (first compound 8 µM) it was 0.146.
